Assay results as given in patent publication US20210070687A1, “MOLECULAR WEIGHT CONTROLLING AGENT FOR RADICAL POLYMERIZATION, METHOD FOR PRODUCING POLYMER USING SAME, AND POLYMER” (SDP Global Co., Ltd., priority 2017, published 2021).

Assay: Solubility in water at 20° C. of the iodine compounds
Conditions: % means % by weight

| SMILES | Solubility in water (20° C.) |
| --- | --- |
| CC(C)(I)C(=O)OCCO [Example 3, 2-Hydroxyethyl 2-iodo-2-methylpropionate] | 3.2% |
| CC(C)(I)C(=O)O [Example 1, 2-Iodo-2-methylpropionic acid] | 1.9% |
| CC(I)C(N)=O (centres unmarked) [Example 2, 2-Iodopropionamide] | 1.2% |
| CC(C)(I)C(=O)[O-].[Na+] [Example 5, Sodium 2-iodo-2-methylpropionate] | >10% |

Next, values leading:

| Solubility in water (20° C.) | SMILES |
| --- | --- |
| 0.2% | CCOC(=O)C(C)I (centres unmarked) [Reference Example 4, Ethyl 2-iodopropionate, reference compound] |
| <0.1% | CCOC(=O)C(C)(C)I [Reference Example 5, Ethyl 2-iodo-2-methylpropionate, reference compound] |
| 0.1% | O=C(O)C(I)c1ccccc1 (centres unmarked) [Reference Example 1, 2-Iodo-2-phenylacetic acid, reference compound] |
| >10% | O=C([O-])C(I)c1ccccc1.[Na+] (centres unmarked) [Example 6, Sodium 2-iodo-2-phenylacetate] |
